Measurements taken from patent US5932545A, “Antiangiogenic drug to treat cancer, arthritis and retinopathy” (Abbott Laboratories, priority 1998, dated 1999).
Blank lines part the entries; values can stand above or below the compound they belong to. Square brackets hold non-standard residues; d marks the D form. Ends that are not written are not given here. Peptide text beside a SMILES is read from it.

How the values were obtained:
[1] = system: bovine capillary (adrenal) endothelial cells (BCE); experiment: endothelial cell migration assay (modified Boyden chamber); type: cell-based; details: 4 hours at 37° C., read-out: IC50, effect on endothelial cell migration
Description: The effect of the peptides of the invention on endothelial cell migration was determined in vitro using the endothelial cell migration assay. This assay was performed essentially as described by Polverini, P. J. et al., Methods Enzymol, 198: 440-450 (1991). Briefly, bovine capillary (adrenal) endothelial cells (BCE, supplied by Judah Folkman, Harvard University Medical School) were starved overnight in DMEM containing 0.1% bovine serum albumin (BSA). Cells were then harvested with trypsin and resuspended in DMEM with 0.1% BSA at a concentration of 1.5×10^6cells/mL. Cells were added to the bottom of a 48-well modified Boyden chamber (Nucleopore Corporation, Cabin John, Md.). The chamber was assembled and inverted, and cells were allowed to attach for 2 hours at 37° C. to polycarbonate chemotaxis membranes (5 μm pore size) that had been soaked in 0.1 % gelatin overnight and dried. The chamber was then reinverted and test compounds were added to the wells of the upper chamber (to a total volume of 50 μL); the apparatus was then incubated for 4 hours at 37° C. Membranes were recovered, fixed and stained (DiffQuick, Fisher Scientific, Pittsburgh, Pa.) and the number of cells that had migrated to the upper chamber per 10 high power fields were counted. Background migration to DMEM+0.1% BSA was subtracted and the data reported as the number of cells migrated per 10 high power fields (400×) or when results from multiple experiments were combined, as the percent of maximal migration compared to a simultaneous positive control.

[2] = system: rat corneal neovascularization; experiment: rat corneal neovascularization assay (hydron pellets, peptide alone or with bFGF); type: in vivo; details: 7 days
Description: Inhibition of angiogenesis in vivo was measured using a rat corneal neovascularization assay. Accordingly, 6% hydron pellets containing peptide alone or in combination with 0.15 μM bFGF were implanted in rat corneas 1-1.5 mm from the limbus. at 7 days, the rats were sacrificed, perfused with colloidal carbon to visualize vessels and the corneas were extracted. Vigorous vessel ingrowth was scored as a positive angiogenic response. Induction control indicates response to 0.15 μM bFGF alone.

[3] = system: rat cornea neovascularization; details: background, Tolsma et al. 1993; cited from earlier work
[4] = system: cultured endothelial cells; details: background, Tolsma et al. 1993; cited from earlier work

IC50 [1]: 7 nM
Compound: CC[C@@H](C)[C@@H](NC(=O)[C@@H](NC(=O)CNC(C)=O)C(C)C)C(=O)N[C@H](C(=O)N[C@@H](CCCNC(=N)N)C(=O)N[C@H](C(=O)N[C@@H](CCCNC(=N)N)C(N)=O)[C@@H](C)CC)[C@@H](C)O [Ac-Gly-Val-D-Ile-Thr-Arg-Ile-Arg-NH2] (Ac-GV[dI]TRIR-NH2)
Positive Corneas/Total Implanted, Tested + bFGF ([2]; 0.1 μM peptide + 0.15 μM bFGF): 1/3 | Positive Corneas/Total Implanted, Tested Alone ([2]; 0.1 μM peptide alone): 0/3 | Positive Corneas/Total Implanted, Tested + bFGF ([2]; 1 μM peptide + 0.15 μM bFGF): 0/2 | Positive Corneas/Total Implanted, Tested Alone ([2]; 1 μM peptide alone): 0/1 | Positive Corneas/Total Implanted, Tested + bFGF ([2]; 20 μM peptide + 0.15 μM bFGF): 0/2 | Positive Corneas/Total Implanted, Tested Alone ([2]; 20 μM peptide alone): 0/4

IC50 [1]: 0.9 nM
Compound: CC[C@@H](C)[C@@H](NC(=O)[C@@H](NC(=O)CNC(=O)[C@H](CC(=O)O)NC(=O)CNC(=O)[C@H](C)NC(=O)[C@@H](NC(=O)[C@@H](NC(=O)[C@H](CO)NC(=O)[C@H](C)NC(=O)[C@@H](CO)NC(=O)[C@H](CO)NC(=O)[C@H](Cc1c[nH]c2ccccc12)NC(=O)[C@@H]1CCCN1C(=O)[C@@H](N)CO)C(C)C)[C@@H](C)O)C(C)C)C(=O)N[C@H](C(=O)N[C@@H](CCCNC(=N)N)C(=O)N[C@H](C(=O)N[C@@H](CCCNC(=N)N)C(=O)O)[C@@H](C)CC)[C@@H](C)O [Ser-Pro-Trp-Ser-D-Ser-Ala-Ser-Val-Thr-Ala-Gly-Asp-Gly-Val-D-Ile-Thr-Arg-Ile-Arg] (H-SPWS[dS]ASVTAGDGV[dI]TRIR-OH)

IC50 [1]: 10 nM
Compound: CC[C@@H](C)[C@@H](NC(=O)[C@@H](NC(=O)CNC(=O)[C@H](CC(=O)O)NC(=O)CNC(=O)[C@H](C)NC(=O)[C@@H](NC(=O)[C@@H](NC(=O)[C@H](CO)NC(=O)[C@H](C)NC(=O)[C@H](CO)NC(=O)[C@H](CO)NC(=O)[C@H](Cc1c[nH]c2ccccc12)NC(=O)[C@@H]1CCCN1C(=O)[C@@H](N)CO)C(C)C)[C@@H](C)O)C(C)C)C(=O)N[C@H](C(=O)N[C@@H](CCCNC(=N)N)C(=O)N[C@H](C(=O)N[C@@H](CCCNC(=N)N)C(=O)O)[C@@H](C)CC)[C@@H](C)O [Ser-Pro-Trp-Ser-Ser-Ala-Ser-Val-Thr-Ala-Gly-Asp-Gly-Val-D-Ile-Thr-Arg-Ile-Arg] (H-SPWSSASVTAGDGV[dI]TRIR-OH)

Compound: CC[C@@H](C)[C@@H](NC(=O)[C@@H](NC(=O)CNC(=O)[C@H](CC(=O)O)NC(=O)CNC(=O)[C@H](C)NC(=O)[C@@H](NC(=O)[C@@H](NC(=O)[C@H](CO)NC(=O)[C@H](C)NC(=O)[C@H](CO)NC(=O)[C@@H](CO)NC(=O)[C@H](Cc1c[nH]c2ccccc12)NC(=O)[C@@H]1CCCN1C(=O)[C@@H](N)CO)C(C)C)[C@@H](C)O)C(C)C)C(=O)N[C@H](C(=O)N[C@@H](CCCNC(=N)N)C(=O)N[C@H](C(=O)N[C@@H](CCCNC(=N)N)C(=O)O)[C@@H](C)CC)[C@@H](C)O [Ser-Pro-Trp-D-Ser-Ser-Ala-Ser-Val-Thr-Ala-Gly-Asp-Gly-Val-D-Ile-Thr-Arg-Ile-Arg] (H-SPW[dS]SASVTAGDGV[dI]TRIR-OH)
Positive Corneas/Total Implanted, Tested + bFGF ([2]; peptide + 0.15 μM bFGF, peptide concentration not given): 0/3 | Positive Corneas/Total Implanted, Tested Alone ([2]; peptide alone in hydron pellet, concentration not given): 0/3

IC50 [1]: 0.9 nM
Compound: CC[C@H](C)[C@H](NC(=O)[C@H](CCCNC(=N)N)NC(=O)[C@@H](NC(=O)[C@@H](NC(=O)[C@@H](NC(=O)CNC(=O)[C@H](CC(=O)O)NC(=O)CNC(=O)[C@H](C)NC(=O)[C@@H](NC(=O)[C@@H](NC(=O)[C@H](CO)NC(=O)[C@H](C)NC(=O)[C@@H](CO)NC(=O)[C@H](CO)NC(=O)[C@H](Cc1c[nH]c2ccccc12)NC(=O)[C@@H]1CCCN1C(=O)[C@@H](N)CO)C(C)C)[C@@H](C)O)C(C)C)[C@@H](C)CC)[C@@H](C)O)C(=O)N[C@@H](CCCNC(=N)N)C(=O)O [Ser-Pro-Trp-Ser-D-Ser-Ala-Ser-Val-Thr-Ala-Gly-Asp-Gly-Val-Ile-Thr-Arg-Ile-Arg] (H-SPWS[dS]ASVTAGDGVITRIR-OH)

IC50 [1]: 50 nM
Compound: CCNC(=O)[C@H](CCCNC(=N)N)NC(=O)[C@@H](NC(=O)[C@H](CCCNC(=N)N)NC(=O)[C@@H](NC(=O)[C@H](NC(=O)[C@@H](NC(=O)CNC(=O)[C@H](Cc1ccc(O)cc1)NC(C)=O)C(C)C)[C@H](C)CC)[C@@H](C)O)[C@@H](C)CC [Ac-Tyr-Gly-Val-D-Ile-Thr-Arg-Ile-Arg-NHCH2 CH3] (Ac-YGV[dI]TRIR-NHEt)

IC50 [1]: 0.67 nM
Compound: CCNC(=O)[C@H](CCCNC(=N)N)NC(=O)[C@@H](NC(=O)[C@H](CCCNC(=N)N)NC(=O)[C@@H](NC(=O)[C@H](NC(=O)[C@@H](NC(=O)CNC(C)=O)C(C)C)[C@H](C)CC)[C@@H](C)O)[C@@H](C)CC [Ac-Gly-Val-D-Ile-Thr-Arg-Ile-Arg-NHEt, Ac-Gly-Val-D-Ile-Thr-Arg-Ile-Arg-NHCH2 CH3] (Ac-GV[dI]TRIR-NHEt)

Compound: SPWSSASVTAGDGVITRIR [MalII, 19-mer synthetic peptide mimicking properdin-like repeat region 1 of TSP1]
neovascularization in vivo in the rat cornea [3]: blocked neovascularization in vivo in the rat cornea | ED50, inhibition of the migration of cultured endothelial cells [4]: about 1 μM
